The source of these data is patent US20200147243A1, “LIGAND COMPOUND OF ALPHA7 NICOTINIC ACETYLCHOLINE RECEPTOR AND APPLICATION THEREOF” (BEIJING NORMAL UNIVERSITY, priority 2017, published 2020).

Read-outs that look alike come from different tables or passages of the source. A value given as a limit tells only on which side of the number the result lay.

In one data set the target is α7 nAChRs (Rattus norvegicus, UniProt Q05941). Nature of the data set: In vitro competitive binding experiment with [125I] α-bgt as radioactive standard. Also on record: species or system SD rats. The following applies: 0.4 nM [125I] α-bgt, Cheng-Prusoff, mean of three measurements ± SD; read-out: Ki (nM), in vitro binding affinity to α7 nAChRs.
Sequence of α7 nAChRs (Q05941 23-502): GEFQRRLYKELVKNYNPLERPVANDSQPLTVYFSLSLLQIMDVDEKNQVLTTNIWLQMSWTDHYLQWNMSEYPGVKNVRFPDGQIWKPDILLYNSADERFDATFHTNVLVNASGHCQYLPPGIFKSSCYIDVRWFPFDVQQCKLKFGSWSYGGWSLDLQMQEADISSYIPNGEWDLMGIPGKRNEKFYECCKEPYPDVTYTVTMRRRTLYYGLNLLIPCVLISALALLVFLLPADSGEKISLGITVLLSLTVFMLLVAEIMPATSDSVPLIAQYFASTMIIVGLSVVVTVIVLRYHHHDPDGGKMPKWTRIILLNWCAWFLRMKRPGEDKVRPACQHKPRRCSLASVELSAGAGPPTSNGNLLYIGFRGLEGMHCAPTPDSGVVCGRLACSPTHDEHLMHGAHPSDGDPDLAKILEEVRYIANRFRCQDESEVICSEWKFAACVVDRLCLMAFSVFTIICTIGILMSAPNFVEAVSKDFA
The target in data set [1] is T1, hERG potassium channel (Homo sapiens, UniProt Q12809). Nature of the data set: in vitro.
T1 sequence (Q12809 whole entry): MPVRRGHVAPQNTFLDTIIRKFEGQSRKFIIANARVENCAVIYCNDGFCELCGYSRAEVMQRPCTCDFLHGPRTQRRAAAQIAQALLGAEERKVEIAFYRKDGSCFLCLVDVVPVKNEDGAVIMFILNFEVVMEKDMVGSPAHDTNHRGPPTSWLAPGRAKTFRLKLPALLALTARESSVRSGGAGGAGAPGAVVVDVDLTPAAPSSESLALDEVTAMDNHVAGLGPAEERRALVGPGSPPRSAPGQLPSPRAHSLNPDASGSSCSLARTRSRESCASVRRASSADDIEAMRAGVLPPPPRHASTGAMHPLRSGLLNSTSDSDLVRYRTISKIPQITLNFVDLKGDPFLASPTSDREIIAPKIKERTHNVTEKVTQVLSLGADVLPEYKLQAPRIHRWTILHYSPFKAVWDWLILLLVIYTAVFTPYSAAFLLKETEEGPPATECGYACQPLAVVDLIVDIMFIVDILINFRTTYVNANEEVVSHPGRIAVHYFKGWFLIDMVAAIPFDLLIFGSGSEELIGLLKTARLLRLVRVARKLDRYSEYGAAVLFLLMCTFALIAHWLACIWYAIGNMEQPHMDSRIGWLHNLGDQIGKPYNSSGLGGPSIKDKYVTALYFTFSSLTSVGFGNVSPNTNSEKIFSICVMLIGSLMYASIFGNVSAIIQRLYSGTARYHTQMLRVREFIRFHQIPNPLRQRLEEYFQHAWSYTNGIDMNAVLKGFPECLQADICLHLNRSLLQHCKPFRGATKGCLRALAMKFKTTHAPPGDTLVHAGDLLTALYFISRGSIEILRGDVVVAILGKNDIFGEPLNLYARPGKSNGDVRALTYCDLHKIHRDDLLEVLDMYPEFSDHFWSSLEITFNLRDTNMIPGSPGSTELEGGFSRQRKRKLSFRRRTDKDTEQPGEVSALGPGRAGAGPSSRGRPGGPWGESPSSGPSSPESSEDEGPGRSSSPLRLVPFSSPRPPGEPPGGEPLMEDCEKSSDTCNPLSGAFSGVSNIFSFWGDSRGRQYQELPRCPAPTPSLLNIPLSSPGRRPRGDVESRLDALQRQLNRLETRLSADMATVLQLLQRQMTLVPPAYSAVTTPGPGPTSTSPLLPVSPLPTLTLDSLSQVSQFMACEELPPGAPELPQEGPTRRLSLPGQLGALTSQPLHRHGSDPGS
The nature of data set [2]: Measurement of half lethal dosage LD50 (tail vein injection). The settings on record: both sexes, Kunming, mouse, in vivo, intravenous, mice, tail vein injection. The data set is classed as in vivo, Kunming mice. An excerpt:
(§1) There are many methods for calculating LD50, among which the weighted probit method created by Bliss and then developed by later researchers was the most accurate and rigorous, and was the standard LD50 calculation method recognized by researchers. This calculation method will be used herein to solve the LD50 value of the compound to be measured to the mice.

The subject of a further data set is Kunming mice. Described as above. The data set is classed as in vivo. The settings on record: for Death Rate (%): tail vein.
Text: as §1

For data set [3], the target named is T1, hERG potassium channel.
Data set [4] deals with T1, hERG potassium channel. The data set is described as follows: In vitro hERG potassium channel inhibition experiment (conventional patch clamp, HEK293 cell line stably expressing hERG). (hERG is a cardiac potassium channel; its block is linked to QT prolongation.)
The conditions of data set [5]: 5 min after administration; cited from earlier work.
The conditions of data set [6]: 5 min after the administration, cited from earlier work.
Setting [7] is: IC50 (μM), hERG potassium current, Table 7 and text, n=3.
The mark [8] stands for this setting: hERG Potassium Channel IC50 (nM), Table 8.

As usually defined, the Ki is a dissociation constant, usually derived from enzyme kinetics or from competition with a known ligand. In the case of `Fc1ccc(-c2ccc3oc(N4CCN5CCC4CC5)nc3n2)cn1` [Compound I-10], on α7 nAChRs, the Ki is 378 ± 119 nM.

As to `CN1CC2CN(c3ccc(-c4ccc(OCCF)cc4)nn3)CC2C1` (stereo not shown) [III-24], the Ki at α7 nAChRs is 445 ± 31.5 nM.

As usually defined, the inhibition is the relative decrease from the control value, in per cent. On hERG potassium channel [1], `COc1cc(N)c(Cl)cc1C(=O)NC1CCN(CCCOc2ccc(F)cc2)CC1OC` (stereo not shown) [Cisapride, reference compound] gave an inhibition at 5 min, 0.001 µM of 8 ± 2%; an inhibition at 5 min, 0.01 µM of 44 ± 1%; an inhibition at 5 min, 0.1 µM of 84 ± 1%.

Usually LD50 stands for the dose expected to kill half of the subjects tested. The IC50 is the concentration that inhibits the measured activity by half. Read a high IC50 as weaker potency. `O=C1c2cc(N3CCN4CCC3CC4)ccc2-c2cccc(F)c21` [II-15]: the LD50 at 14 days in data set [2] (weighted probit method, read-out: half lethal dosage LD50) is 53.7 mg/kg; in data set [2] (read-out: 95% confidence limit of LD50), 50.4 to 57.2 mg/kg. Further, the “Observation Record” value in the data set with Kunming mice (43.74 mg/kg) was “Symptoms of convulsion, and trembling”; in the data set with Kunming mice (54 mg/kg), “Died after convulsion of 20 min; survivors”; in the data set with Kunming mice (60 mg/kg), “Died after convulsion of 6-10 min; survivors”; in the data set with Kunming mice (64.8 mg/kg) it was “Died after convulsion of about 10 s: survivors”. Also, the “Number of Death” value is listed as 1 in the data set on Kunming mice (43.74 mg/kg, 10 mice); 2 with Kunming mice (48.6 mg/kg, 9 mice); 6 in the data set on Kunming mice (54 mg/kg, 10 mice); 7 with Kunming mice (60 mg/kg, 10 mice); 9 with Kunming mice (64.8 mg/kg, 10 mice). The “Death Rate (%)” value in the data set with Kunming mice (43.74 mg/kg, 14 days observation) turned out to be 10%; with Kunming mice (48.6 mg/kg, 14 days observation) it was 22%; in the data set on Kunming mice (54 mg/kg, 14 days observation), 60%; with Kunming mice (60 mg/kg, 14 days observation), 70%; with Kunming mice (64.8 mg/kg, 14 days observation) it was 90%. For the same molecule, the “weights of surviving mice in the observation period” value in the data set with Kunming mice (14 days observation) was “increased normally”. In the data set on Kunming mice (all administrated mice), the “inappetence after the administration, then recovered to normal” value was at most 1 h. Moreover, the “tissues and organs of dissected dead mice” value in the data set with Kunming mice (all dose groups) is given as “no abnormality was found”. Further, the “IC50(hERG)/IC50(α7 nAChR)” value against hERG potassium channel [3] is 74. The inhibition at 5 min, 0.4 µM against hERG potassium channel [1] turned out to be 45 ± 1%. This molecule came in with an inhibition at 5 min, 2 µM against hERG potassium channel [1] of 82 ± 1%. The molecule also displayed an inhibition at 5 min, 10 µM at hERG potassium channel [1] of 97 ± 1%. Also, the inhibition at 5 min, 50 µM at hERG potassium channel [1] is 98 ± 1%. The concentration for half-maximal inhibition (IC50) at hERG potassium channel [4] (setting [7]) and at hERG potassium channel [4] (setting [8]) was 0.46 ± 0.011 µM each time.

As to `CN1CC2CN(c3ccc(-c4ccc5c(ccn5CCF)c4)nc3)CC2C1` (stereo not shown) [III-19], the inhibition constant Ki at α7 nAChRs turned out to be 456 ± 152 nM.

As for `O=S1(=O)c2cc(N3CCN4CCC3CC4)ccc2-c2cccc([18F])c21` [[^18F] ASEM], the “highest brain uptake value (reported)” value in data set [5] is 7.5 % ID/g. In addition, the “uptake value in corpus striatum (reported)” value in data set [6] (corpus striatum) is given as 6.0 % ID/g. Moreover, in data set [6] (cortex), the “uptake value in cortex (reported)” value is listed as 7.2 % ID/g. For the same molecule, the “uptake value in hippocampus (reported)” value in data set [6] (hippocampus) is on record as 5.0 % ID/g.

Regarding `Nc1ccc2c(c1)C(=O)c1cc(N3CCN4CCC3CC4)ccc1-2` [II-5], on hERG potassium channel [1], the inhibition at 5 min, 0.4 µM was 19 ± 1%; the inhibition at 5 min, 2 µM was 42 ± 1%; the inhibition at 5 min, 10 µM was determined as 79 ± 2%; the inhibition at 5 min, 50 µM was found to be 98%. For the same molecule, the IC50 at hERG potassium channel [4] (setting [7]) amounted to 2.5 ± 0.15 µM. For the same molecule, half-maximal inhibition against hERG potassium channel [4] (setting [8]) (IC50) required 2.5 ± 0.15 µM.

Take `O=C1c2cc(F)ccc2-c2ccc(N3CCN4CCC3CC4)cc21` [II-6]: the “IC50(hERG)/IC50(α7 nAChR)” value against hERG potassium channel [3] was determined as 22. On hERG potassium channel [1], this molecule returned an inhibition at 5 min, 0.4 µM of 42 ± 2%; an inhibition at 5 min, 2 µM of 80 ± 1%; an inhibition at 5 min, 10 µM of 96 ± 1%; an inhibition at 5 min, 50 µM of 100%. The molecule further registered an IC50 on hERG potassium channel [4] (setting [7]) of 0.46 ± 0.055 µM. The molecule also showed an IC50 against hERG potassium channel [4] (setting [8]) of 0.46 ± 0.055 µM.

For the molecule `Nc1cccc2c1C(=O)c1cc(N3CCN4CCC3CC4)ccc1-2` [II-14], on hERG potassium channel [1], the inhibition at 5 min, 0.4 µM is 6 ± 1%; the inhibition at 5 min, 2 µM is 20 ± 2%; the inhibition at 5 min, 10 µM was 25 ± 3%; the inhibition at 5 min, 50 µM was 53 ± 4%. Moreover, it took 49.7 ± 15.9 µM to reach half-maximal inhibition on hERG potassium channel [4] (setting [7]) (IC50). The IC50 against hERG potassium channel [4] (setting [8]) stood at 49.7 ± 15.9 µM.
